Laboratory results reported in patent publication US12503490B2, “Method of treating Gram-negative bacterial infection with isolated darobactin compounds” (Northeastern University, priority 2018, dated 2025).

Test system: E. coli
Test: Antagonization assay by lipopolysaccharide (LPS)
Assay type: cell-based
Set-up: key: +: grown; −: not grown
Description: darobactin A is a large compound of 966 Da molecular weight. The limit for penetration into Gram-negative bacteria is around 500 Da. It therefore seemed possible that darobactin A acted on the cell surface, similarly to polymyxin which targets lipopolysaccharide (LPS). In order to test this, activity of darobactin A was tested in the presence of LPS. E. coli was inoculated into 5 mL MHIIB, and grown until the cell density reach to OD600=0.1-0.9. The cell suspension was diluted to OD600=0.002 with 2×MHIIB. 40 μL of LPS solution (final concentration range from 0 to 800 μg/mL) and 2 μL of 2×MIC antibiotic solution (final concentration: polymyxin; 0.5 μg/mL, ampicillin; 16 μg/mL, darobactin A; 16 μg/mL) were mixed in a 96-well plate and fill up to 50 μL by sterile dI water. LPS and antibiotic solutions were mixed with 50 μL of E. coli cell suspensions, and incubated at 37° C. for 20 hours. The growth of E. coli was determined visually (Table 3).

Compound	growth of E. coli with 2× MIC antibiotic (LPS 0 μg/mL)	growth of E. coli with 2× MIC antibiotic (LPS 3.13 μg/mL)	growth of E. coli with 2× MIC antibiotic (LPS 6.25 μg/mL)	growth of E. coli with 2× MIC antibiotic (LPS 800 μg/mL)
CC1(C)S[C@@H]2[C@H](NC(=O)[C@H](N)c3ccccc3)C(=O)N2[C@H]1C(=O)O [Ampicillin]	−	−	−	−
Polymyxin B	−	−	+	+
